Data from patent US6489307B1, “Antisense compositions targeted to β1-adrenoceptor-specific mRNA and methods of use” (University of Florida, priority 1998, dated 2002).
“And” between values parts separate entries of the source, which are not always exact repeats. Equal values may be shown once.

Assays:
MDA (lipid peroxidation) = assay: MDA levels in myocardium after ischemia-reperfusion; type: in vivo, Sprague-Dawley rats; settings: pretreatment before ischemia-reperfusion; vs saline
Method: Malondialdehyde (MDA) levels in myocardium were measured in duplicate by a modification of the method of Ohkawa et al., (1979). Briefly, the ventricular tissues were homogenized. The assay mixture consisted of 0.1 ml of the tissue homogenate, 0.4 ml of 0.9% NaCl, 0.5 ml of 3% sodium dodecylsulfate, 3 ml of TBA (thiobarbituric acid reagent, containing equal parts of 0.8% aqueous thiobarbituric acid and acetic acid) and was heated for 75 min at 95° C. Thereafter, 1 ml cold 0.9% NaCl was added to the mixture, which was cooled and extracted with 5 ml n-butanol. After centrifugation at 3,000 rpm for 15 min, the butanol phase was assayed spectrophotometrically at 532 nm. Tetramethoxypropane (in amounts of 0, 0.1, 0.2, 0.4, 0.8, 1.0 nmole) served as external standard. MDA levels in myocardium were expressed in μmol/g tissue.

[1] = Liver transaminases in plasma after repeated injections; type: in vivo, rat (SHR); settings: for ALT / AST: after repeated administration
Method: Safety profiles including liver transaminases, hematology, immune response and tissue pathology were investigated during three repeated injections of β1-AS-ODNs for extended periods of time.
Alanine aminotransferase (ALT) and aspartate aminotransferase (AST) are routinely used as a clinical index for liver function. Their levels increase substantially upon liver damage. SHR were treated with three repeated injections of β1-AS-ODN.

β1-AR protein = assay: Western blot of β1-AR protein in myocardium; type: in vivo, Sprague-Dawley rats; settings: Western analysis
Method: Myocardial tissues were homogenized and lysed in boiling lysis buffer (1% SDS, 0.1% Triton X-100®, and 10 mmol/L Tris-HCl, pH 7.4) and centrifuged at 10,000 RPM for 30 minutes at 4° C. The lysate protein from myocardial tissues (20 μg/lane) was separated by 8% SDS-PAGE using a Bio-Rad Mini-Protean cell, transferred to nitrocellulose membrane (Amersham). After incubation in blocking solution (4% non-fat milk, Sigma), membranes were incubated with 1:1000 dilation primary antibody (polycolonal antibody to β1-AR, Santa Cruz Biotechnology) for overnight at 4° C. Membranes were washed and incubated with 1:2000 dilution second antibody (Amersham) for one hr. The membranes were detected with the ECL system, as described previously (Yang et al, 1998; Li et al., 1999).

β1-ARs = molecular target: T1, β1-ARs (Rattus norvegicus, UniProt P18090); assay: β-AR binding assay (ICYP saturation) on heart ventricle membranes after i.v. injection; type: in vivo, rat (SHR); settings: for Bmax, β1: cardiac ventricles of SHRs 4 days after treatment (1 mg/kg i.v.)
T1 construct: membranes were prepared from heart ventricles as previously described; from tissue; host or cells: heart ventricles of SHR
Method: (§1) Four days after intravenous injection of saline (n=6) or 1 mg/kg inverted ODN (n=6) or 2, 4, 10 or 18 days after injection of 1 mg/kg β1-AS-ODN (n=24), animals were euthanized, and membranes were prepared from heart ventricles as previously described (Baker and Pitha, 1982). For saturation experiments, 100 μg membrane protein was incubated in triplicate with 6 concentrations of [^125I](^−)-iodocyanopindolol (ICYP, NEN Life Science, 6.25 to 100 pmol/L) in a total volume of 250 μL containing 50 mmol/L Tris-HCl (pH 7.4), 5 mmol/L MgCl2 at 36° C. for 60 minutes. The nonspecific and β2-AR-binding levels were determined in the presence of 1 μmol/L (±)-alprenolol and 150 nmol/L CGP20712A (RBI), respectively. Then the reaction mixture was passed through Whatman (GF/B glass fiber filter using a Brandel harvester, and the bound radioactivity was counted for 1 min.
(§2) Four days after intravenous injection of saline (n=6) or 1 mg/kg inverted ODN (n=6), or 2, 4, 10, 18 days after injection of 1 mg/kg β1-AS-ODN (n=24), animals were sacrificed and membranes were prepared from heart ventricles as previously described (Baker and Pitha, 1982). For saturation studies, 100 μg membrane protein was incubated in triplicate with six concentrations of ^125I-(−)iodocyanopindolol (I-CYP, NEN Life Science, 6.25-100 pM) in a total volume of 250 μl containing 50 mM Tris-HCl (pH 7.4), 5 mM MgCl2 at 36° C. for 60 min. The nonspecific and β2-adrenoceptor binding levels were determined in the presence of 1 μM (±)-alprenolol and 150 nM CGP20712A (RBI), respectively. Then the reaction mixture was passed through Whatman GF/B glass fiber filter using Brandel harvester and the bound radioactivity was counted for one min.

Total (β1+β2) β-ARs = assay: as above; type: in vivo, rat (SHR); settings: cardiac ventricles of SHRs 4 days after treatment (1 mg/kg i.v.)
Method: as §1, §2

β2-ARs = molecular target: T2, β2-ARs (Rattus norvegicus, UniProt P10608); assay: as above; type: in vivo, rat (SHR); settings: for Bmax, β2: cardiac ventricles of SHRs 4 days after treatment (1 mg/kg i.v.)
T2 construct: membranes were prepared from heart ventricles as previously described; from tissue; host or cells: heart ventricles of SHR
Method: as §1, §2

β1-AR mRNA = assay: RT-PCR of β1-AR mRNA in myocardium; type: in vivo, Sprague-Dawley rats; settings: adjusted for GAPDH
Method: Total RNA was isolated from rat myocardium with the single step acid-guanidinum thiocyanate-phenol-chloroform method and quantified (Chomcznski and Sacchi, 1987). One μg of total RNA was reverse transcribed with oligo-dT (Promega) and M-MLV reverse transcriptase (Promega) at 37° C. for one hr. 1.5 μl of RT material was amplified with Taq DNA polymerase (Promega) using a primer pair specific to β1-AR:
PCR™ product was 432 base pairs. For PCR, 35 cycles were used at 95° C. for one minute, 60° C. for one minute, and 72° C. for one min. The RT-PCR™ amplified samples were visualized on 1.8% agarose gels using ethidium bromide. A primer pair of rat GAPDH was used as control:
For PCR™, 35 cycles were used at 95° C. for one min, 60° C. for one min, 72° C. for one min. PCR™ product was 504 base pairs. Relative intensity of bands of interest were analyzed by NSF-300G Scanner (Microtek) (Yang et al., 1998; Li et al., 1999).

T2 sequence (P10608 whole entry): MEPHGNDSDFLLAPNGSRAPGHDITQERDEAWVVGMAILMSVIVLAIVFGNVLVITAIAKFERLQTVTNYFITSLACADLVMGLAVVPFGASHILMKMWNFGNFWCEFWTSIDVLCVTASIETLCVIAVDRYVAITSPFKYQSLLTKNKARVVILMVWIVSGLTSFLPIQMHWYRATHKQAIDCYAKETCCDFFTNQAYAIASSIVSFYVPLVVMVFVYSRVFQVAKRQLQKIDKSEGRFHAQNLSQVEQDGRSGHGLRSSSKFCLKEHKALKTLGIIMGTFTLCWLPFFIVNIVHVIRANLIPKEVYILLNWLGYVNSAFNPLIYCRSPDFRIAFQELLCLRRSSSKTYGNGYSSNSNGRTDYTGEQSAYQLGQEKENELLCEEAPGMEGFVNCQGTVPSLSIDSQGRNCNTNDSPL
T1 sequence (P18090 whole entry): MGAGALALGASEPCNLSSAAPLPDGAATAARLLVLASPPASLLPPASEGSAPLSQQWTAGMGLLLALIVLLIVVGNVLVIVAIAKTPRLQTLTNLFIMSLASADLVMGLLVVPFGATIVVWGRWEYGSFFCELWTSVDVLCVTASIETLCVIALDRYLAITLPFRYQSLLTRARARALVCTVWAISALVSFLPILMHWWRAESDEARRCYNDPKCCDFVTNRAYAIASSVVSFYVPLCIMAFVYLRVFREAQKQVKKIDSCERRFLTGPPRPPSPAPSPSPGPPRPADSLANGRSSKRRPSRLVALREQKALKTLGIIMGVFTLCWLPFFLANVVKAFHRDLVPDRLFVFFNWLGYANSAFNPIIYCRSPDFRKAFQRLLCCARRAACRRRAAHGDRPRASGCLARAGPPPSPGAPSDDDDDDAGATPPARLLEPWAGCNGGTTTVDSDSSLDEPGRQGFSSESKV

| Substance | increase in MDA levels in the myocardium (MDA (lipid peroxidation)) | ALT [1] | AST [1] | ischemia-reperfusion-mediated increase in β1-AR protein expression (β1-AR protein) | effect on either β-AR subtype (β1-ARs; SHR cardiac ventricles, 1 mg/kg i.v., 4 days) | Bmax, β1 (β1-ARs) | Bmax, Total (β1+β2) (Total (β1+β2) β-ARs) | Bmax, β2 (β2-ARs) | increase of mRNA for β1-AR in myocardium (β1-AR mRNA) | plasma concentrations of ALT and AST vs control groups ([1]; after each of three repeated injections) | β1/β2 subtype ratio in the ventricles (β1-ARs; after treatment, from ≈70/30) | duration of significant reduction of β1-AR density in SHR hearts (β1-ARs; single i.v. 1 mg/kg with cationic liposomes 1:2.5) | drop in cardiac β1-AR density (β1-ARs; single i.v. 1 mg/kg with cationic liposomes 1:2.5, day 10) | drop in cardiac β1-AR density (β1-ARs; single i.v. 1 mg/kg with cationic liposomes 1:2.5, day 18) | change in Bmax of β2-ARs (β2-ARs; SHR hearts, single i.v. 1 mg/kg) |
| --- | --- | --- | --- | --- | --- | --- | --- | --- | --- | --- | --- | --- | --- | --- | --- |
| 5′-AGCCGTACCCGCGCC-3′ (phosphorothioate backbone, further chemistry not given here) [Inverted ODN, 15-mer inverted ODN control, reference compound] | did not affect | 30.5 ± 3.8 unit/ml | 83.0 ± 8.3 unit/ml | no effect | no effect | 18.1 ± 2.3 fmol/mg | 26.3 ± 3.0 fmol/mg | 8.7 ± 0.5 fmol/mg | not significantly affected | – | – | – | – | – | – |
| 5′-CCGCGCCCATGCCGA-3′ (phosphorothioate backbone, further chemistry not given here) [β1-AS-ODN, 15-mer antisense ODN targeted to the AUG start codon of rat β1-AR mRNA] | attenuated the increase | 25.7 ± 1.1 unit/ml | 74.0 ± 3.7 unit/ml | abolished | – | 10.0 ± 1.2 fmol/mg | 19.8 ± 1.8 fmol/mg | 9.9 ± 0.5 fmol/mg | attenuated the increase | no significant difference | ≈ 50/50 and 50/50 | 18 days | 33% | 29% | no significant change |
